Reference: publication PMC12040169 (PLOS Biology, 2025)

Assay: in vitro
Details: human, hela cells, % viability

CC(=O)Nc1ccc(-c2cncc(NC(C)CCCC(C)(C)O)n2)cc1 (stereo not shown) [CBK065894]
viability at 28.5 h, 10 µM: 91.1%

CC(C)[C@@H](CO)Nc1nc(-c2ccccc2Cl)cn2ccnc12 [CBK037368]
viability at 28.5 h, 10 µM: 101%

O=C(CCn1ccnc1)NCC1Cc2ccccc2O1 (stereo not shown) [CBK283062]
viability at 28.5 h, 10 µM: 81%

CC(=O)Nc1ccc([C@@H](O)[C@H]2COCC(=O)N2Cc2ccc(C(F)(F)F)cc2)cc1 [CBK289678]
viability at 28.5 h, 10 µM: 92.7%

COC(=O)Cc1c(O)nn(C)c1Cc1cccc(C(F)(F)F)c1 [CBK006608]
viability at 28.5 h, 10 µM: 99.5%

O=C(NCc1ccc(N2CCCC2=O)cc1)c1cc(Br)ccc1O [CBK296614]
viability at 28.5 h, 10 µM: 91.2%

CCCCc1ccc(-c2nc(NC(=O)NCC)cc3cccnc23)cc1 [CBK081231]
viability at 28.5 h, 10 µM: 94.6%

CO/N=C\c1c(CO)cnc(C)c1O [CBK022776]
viability at 28.5 h, 10 µM: 98.4%

N#Cc1cnc2ccccc2c1N1CCC(C(=O)O)CC1 [CBK288050]
viability at 28.5 h, 10 µM: 90%

O=C(NC(=S)Nc1sc2c(c1C(=O)O)CCCC2)c1ccccc1 [CBK263695]
viability at 28.5 h, 10 µM: 98.1%

Clc1ccc(COc2cccc3cccnc23)cn1 [CBK002718]
viability at 28.5 h, 10 µM: 93.2%

CC(C)(C)OC(=O)N1CCC2(CC1)OCc1cc(-c3cccc(C(=O)O)c3)ccc1O2 [CBK107809]
viability at 28.5 h, 10 µM (bulk resorufin, single well): 87.5%

COc1ccc(-c2cc(C(=O)Nc3cccc(C(=O)O)c3)cnc2-c2ccc(F)cc2)cn1 [CBK038064]
viability at 28.5 h, 10 µM: 91.3%

O=C1CC(N2CCN(Cc3ccc4c(c3)OCO4)CC2)C(=O)N1CCc1ccccc1 (stereo not shown) [CBK074541]
viability at 28.5 h, 10 µM: 93.7%

COc1ccnc(N2CCCN(CCCC#N)CC2)n1 [CBK084124]
viability at 28.5 h, 10 µM: 88.4%

OCc1ccccc1-c1cn2ccnc2c(Nc2ccc(N3CCOCC3)cc2)n1 [CBK037956]
viability at 28.5 h, 10 µM: 85.8%

CCN(CC)CCN(CCc1ccc(OC)c(OC)c1)C(=O)Nc1ccc(Cl)cc1 [CBK160510]
viability at 28.5 h, 10 µM: 96.6%

CC(C)CN(CCc1ccc(O)cc1)CC(=O)NC1(c2ccccc2)CCC1 [CBK067781T]
viability at 28.5 h, 10 µM: 100%

CCN1C(=O)c2cccc3c(S(=O)(=O)N4CCCC4C(=O)O)ccc1c23 (stereo not shown) [CBK267169]
viability at 28.5 h, 10 µM: 109%

COc1ccc(CCNC(=O)c2ncoc2-c2cccs2)cc1 [CBK283663]
viability at 28.5 h, 10 µM: 103%

COc1ccc(-c2cncc(N3CCN(C)CC3)n2)cc1 [CBK065378]
viability at 28.5 h, 10 µM: 91.8%

Cc1cc(CN(C)Cc2ccc(-n3ccnc3C)cc2)n[nH]1 [CBK281989]
viability at 28.5 h, 10 µM: 97.6%

CSc1ncccc1C(=O)NCc1ccc(NC(C)=O)cc1 [CBK305009]
viability at 28.5 h, 10 µM: 97%

CN(C)c1ccc(C(=O)N2CC[C@@H](CC(=O)O)[C@@H](CC3=NCCc4ccccc43)C2)cc1 [CBK289159]
viability at 28.5 h, 10 µM: 94.8%

COC(=O)C(NC(=O)c1cnc(-c2ccc(Cl)cc2)c(-c2ccc(O)cc2)c1)c1ccccc1 (stereo not shown) [CBK036723]
viability at 28.5 h, 10 µM: 90.6%

O=C(O)c1cc(S(=O)(=O)Nc2ccc3nc(N4CCCC4)sc3c2)ccc1Br [CBK296710]
viability at 28.5 h, 10 µM: 91.5%

CCOc1ccccc1CCNS(=O)(=O)c1ccc(Cl)c(Cl)c1 [CBK043610]
viability at 28.5 h, 10 µM: 95.5%

O=S(=O)(c1cnc(Cl)c(Br)c1)N1CCC2(CC1)OCCO2 [CBK044070]
viability at 28.5 h, 10 µM: 97.5%

c1ccc2c(c1)CCCN2CCc1c[nH]c2ccccc12 [CBK138330]
viability at 28.5 h, 10 µM: 97.3%

O=C(O)CNS(=O)(=O)c1cccc2nsnc12 [CBK261136]
viability at 28.5 h, 10 µM: 96.8%

COc1ccc(CNc2cnc3ccccc3c2)c(O)c1 [CBK293951]
viability at 28.5 h, 10 µM: 87.5%

O=C(CN1C2CCC1CC(O)(c1ccco1)C2)Nc1ccccc1F (stereo not shown) [CBK284109]
viability at 28.5 h, 10 µM: 96.7%

COc1cccc2ncn(CCNS(C)(=O)=O)c(=O)c12 [CBK306583]
viability at 28.5 h, 10 µM: 81%

O=C(O)c1cccc2c1Sc1ccccc1O2 [CBK017129]
viability at 28.5 h, 10 µM: 90.8%

c1ccc(-c2c(-c3ccccc3)n(Cc3ccco3)c3ncn4nc(-c5cccnc5)nc4c23)cc1 [CBK265374]
viability at 28.5 h, 10 µM: 100%

Cc1nc(C2CCCN(C(=O)c3cnn(C)c3)C2)c2sccn12 (stereo not shown) [CBK285236]
viability at 28.5 h, 10 µM: 81.4%

Cc1cc(C[C@@H]2COC[C@H]2NCc2ccc(C(F)(F)F)cc2)on1 [CBK285463]
viability at 28.5 h, 10 µM: 107%

N/C(=N/c1ccccn1)C(F)(F)F [CBK021049]
viability at 28.5 h, 10 µM: 90.1%

c1ccc(C(Oc2nccnc2-c2ccsc2)c2ccccc2)cc1 [CBK106765]
viability at 28.5 h, 10 µM: 103%

Cc1ccc(NC(=O)c2ccccc2)s1 [CBK086724]
viability at 28.5 h, 10 µM: 95.2%

COc1cc(NC(=O)c2ccc3c(c2)C(=O)N(Cc2ccco2)C3=O)c(C(=O)O)cc1OC [CBK267436]
viability at 28.5 h, 10 µM: 105%

O=C1NC(=O)C(CC(=O)N2CCCC3(CCN(C(=O)c4cc(F)c(F)cc4F)C3)C2)N1 (stereo not shown) [CBK131550]
viability at 28.5 h, 10 µM: 96.2%

CCN(Cc1ccccc1)Cc1nc2ccccc2c(=O)[nH]1 [CBK283203]
viability at 28.5 h, 10 µM: 95.6%

Cc1ccc(C2(CN3CCN(Cc4cnn(C)c4)CC3)CC2)cc1 [CBK282480]
viability at 28.5 h, 10 µM: 96.3%

Cc1ccc(S(=O)(=O)NCC(=O)O)cc1[N+](=O)[O-] [CBK034459]
viability at 28.5 h, 10 µM: 114%

CCCc1cc(=O)[nH]c(Nc2ccc(OCC)cc2)n1 [CBK288140]
viability at 28.5 h, 10 µM: 112%

Cc1nc2nc(SCc3cc(=O)n4ccccc4n3)nn2c(C)c1Cc1ccccc1 [CBK294460]
viability at 28.5 h, 10 µM: 89.9%

Cc1cc2c(cc1C)NC(CC(=O)Nc1ccc(N(C)C)cc1)C(=O)N2 (stereo not shown) [CBK265595]
viability at 28.5 h, 10 µM: 85.8%

CC(C)Nc1ccc(S(=O)(=O)N(Cc2ccccc2)Cc2ccccc2)cn1 [CBK267307]
viability at 28.5 h, 10 µM: 84.6%

O=C(CSCc1ccc(Br)cc1)Nc1cccnc1 [CBK268543]
viability at 28.5 h, 10 µM: 104%

CCN(CC)C(=O)c1c(NC(=O)c2cccs2)sc2c1CCC2 [CBK307096]
viability at 28.5 h, 10 µM: 93%

O=c1cc(N2CCOCC2)cnn1CCCCOc1ccccc1 [CBK307327]
viability at 28.5 h, 10 µM: 97.9%

Cc1cnc(C(=O)N[C@H]2C3CCCCC3[C@@H]2c2ccccc2)cn1 (stereo partly shown) [CBK285125]
viability at 28.5 h, 10 µM: 102%

CCNc1cncc(-c2ccc(C(N)=O)cc2)n1 [CBK065414]
viability at 28.5 h, 10 µM: 96.2%

O=C(CC1(O)C(=O)N(CN2CCOCC2)c2ccccc21)c1ccc2c(c1)OCO2 (stereo not shown) [CBK269639]
viability at 28.5 h, 10 µM: 99.3%

O=C(c1ncoc1-c1ccc(F)cc1)N1CCSCC1 [CBK282380]
viability at 28.5 h, 10 µM: 105%

COCCn1cnnc1CN(C)C(=O)NCc1cc2ccccc2s1 [CBK306911]
viability at 28.5 h, 10 µM: 98.6%

CCC(Oc1ccccc1)C(=O)Nc1cc(C)on1 (stereo not shown) [CBK288152]
viability at 28.5 h, 10 µM: 101%

COc1ccc(C2=Nc3ccc(Br)cc3C(c3ccccc3)N2CC(=O)NN)cc1 (stereo not shown) [CBK263141]
viability at 28.5 h, 10 µM: 95.8%

N#CC(C(=O)CN1CCN(Cc2ccccc2)CC1)c1ccccc1 (stereo not shown) [CBK269386]
viability at 28.5 h, 10 µM: 99.6%

CC1(C)CC(N2CNC(=N)N(C#N)C2)CC(C)(C)N1 [CBK262008]
viability at 28.5 h, 10 µM: 90.7%

O=c1n(CCCNCc2ccc(Cl)cc2Cl)nc2n1CCCC2 [CBK305382]
viability at 28.5 h, 10 µM: 97.2%

CC(C)Nc1nc2ccccc2nc1SCCC(=O)O [CBK107858]
viability at 28.5 h, 10 µM: 106%

COC(=O)c1cccc2c1[nH]c1ccccc12 [CBK001709]
viability at 28.5 h, 10 µM: 99.9%

CCOC(=O)C1CCCCN1Cc1ccc(OC)c(O)c1 (stereo not shown) [CBK261560]
viability at 28.5 h, 10 µM: 98.3%

CC(=O)Nc1ccc(/C=N/NC(=O)c2nnn(-c3nonc3N)c2-c2ccccc2)cc1 [CBK262790]
viability at 28.5 h, 10 µM: 94.9%

CSc1cccc(NC(=O)NCCN2CCNC2=O)c1 [CBK057191]
viability at 28.5 h, 10 µM: 103%

CS(=O)(=O)c1ccc(-n2ncc(-c3cccc(C(F)(F)F)c3)n2)cc1 [CBK112672]
viability at 28.5 h, 10 µM: 95.6%

c1csc(Sc2nccnc2N2CCCC2)n1 [CBK093805]
viability at 28.5 h, 10 µM: 107%

O=C(Cc1ccsc1)N1CCC(c2cc3cccnc3[nH]2)CC1 [CBK285000]
viability at 28.5 h, 10 µM: 85.6%

CC(Cc1nc(-c2ccnn2C)cs1)n1cc(Cl)cn1 (stereo not shown) [CBK304152]
viability at 28.5 h, 10 µM: 96.6%

O=C(c1nc(=O)[nH][nH]1)N1CCN(Cc2ccc(C(F)(F)F)cc2)CC1 [CBK298312]
viability at 28.5 h, 10 µM: 95.5%

Cc1ccc(-c2nn(-c3ccccc3)cc2C2CC(c3cccs3)=NN2C(=O)CCC(=O)O)cc1 (stereo not shown) [CBK296126]
viability at 28.5 h, 10 µM: 107%

CC1(C)C(=O)N2CCN=C2c2ccccc21 [CBK009903]
viability at 28.5 h, 10 µM: 78.6%

Cn1cc(C(C(=O)O)N2CCN(c3ccccc3)CC2)c2cc(C(=O)O)ccc21 (stereo not shown) [CBK286627]
viability at 28.5 h, 10 µM: 115%

Nc1ncc(-c2cncnc2)nc1NC1CC1 [CBK063869]
viability at 28.5 h, 10 µM: 101%

CC1(C)CC(NC(=O)C(=O)NCCc2ccc(Cl)cc2)CC(C)(C)N1 [CBK262363]
viability at 28.5 h, 10 µM: 83.8%

CCOCCCNc1nc2c(c(=O)[nH]c(=O)n2C)n1CCC(C)C [CBK287968]
viability at 28.5 h, 10 µM: 87.7%

COc1ccccc1-c1ccccc1CC1(C(=O)NCc2cccc(F)c2)CCOCC1 [CBK286426]
viability at 28.5 h, 10 µM: 96.9%

Cc1cc2ccccc2n2c(SCC(=O)Nc3nsc(-c4ccccc4)n3)nnc12 [CBK265673]
viability at 28.5 h, 10 µM: 116%

O=C(CCN1CCN(CCO)CC1)Nc1ccc(F)c(F)c1 [CBK264316]
viability at 28.5 h, 10 µM: 100%

CC(C)(C)c1ccc(OCC(O)CNS(=O)(=O)O)cc1 (stereo not shown) [CBK261169N]
viability at 28.5 h, 10 µM: 102%

COc1ccc(C(=O)NNC(=O)c2cc(OC)cc(OC)c2)cc1 [CBK262616]
viability at 28.5 h, 10 µM: 96%

c1ccc(CCN2CCC(Cc3ccccc3)CC2)cc1 [CBK126434]
viability at 28.5 h, 10 µM: 96.3%

CN1CCCN(c2nc(-c3cccc(C(F)(F)F)c3)cn3ccnc23)CC1 [CBK066519]
viability at 28.5 h, 10 µM: 92%

O=C(c1ccc(OC(F)(F)F)cc1)N1CCC2(CCCNC2)C1 (stereo not shown) [CBK137156C]
viability at 28.5 h, 10 µM: 87.7%

CCOC(=O)C1CCCN(C(=O)Cn2ncc(Cl)c(Cl)c2=O)C1 (stereo not shown) [CBK305573]
viability at 28.5 h, 10 µM: 47.7%

CCOc1cc(OCC)cc(C(=O)N2CCCC3(CC2)CC(=O)c2ccc(C)cc2O3)c1 (stereo not shown) [CBK168241]
viability at 28.5 h, 10 µM: 98.2%

O=c1cc(O)c2ccccc2n1Cc1ccccc1F [CBK291162]
viability at 28.5 h, 10 µM: 86.3%

COc1ccc(C(=O)NC(c2ccco2)c2cc(Cl)c3cccnc3c2O)cc1 (stereo not shown) [CBK263964]
viability at 28.5 h, 10 µM: 91.9%

Cc1ccc2c(C(=O)Nc3sc4c(c3C(N)=O)CCCCC4)cc(-c3ccccn3)nc2c1C [CBK267749]
viability at 28.5 h, 10 µM: 94%
